Laboratory results reported in article PMC9503132, “Development of Halogenated-Chalcones Bearing with Dimethoxy Phenyl Head as Monoamine Oxidase-B Inhibitors” (Pharmaceuticals, 2022).
Values after ≈ are worked out from the molar mass of the structure shown.

What was measured:
[1] = target: BChE (Equus caballus, UniProt P81908); test: biochemical; conditions: read-out: Residual activity at 10 µM (%) BChE
Method: (§1) The AChE and BChE inhibitory activities were measured by continuous colorimetric determination method, in the presence of 0.5 mM acetylthiocholine iodide (ACTI) and butyrylthiocholine iodide […]
(§2) POP, K LAB, Daejeon, Korea). After adding the substrate, 0.5 mM 5,5-dithiobis (2-nitrobenzoic acid) (DTNB) was added as the color development solution. The BACE-1 inhibitory activity was evaluated by β-secretase (BACE1) activity detection kit (Sigma-Aldrich, St. Louis, Mo, USA) using a fluorescence spectrometer (FS-2, Scinco, Seoul, Korea). […]

[2] = target: T1, BACE-1 (Homo sapiens, UniProt P56817); test: BACE-1 inhibition (β-secretase activity detection kit); assay type: biochemical; conditions: 10 µM compound; read-out: Residual activity at 10 µM (%) BACE-1
T1 construct: purchased Sigma-Aldrich
Method: as §1, §2

[3] = target: AChE (Electrophorus electricus, UniProt O42275); test: AChE inhibition (colorimetric, acetylthiocholine iodide); assay type: biochemical; conditions: read-out: Residual activity at 10 µM (%) AChE
Method: as §1
POP, K LAB, Daejeon, Korea). After adding the substrate, 0.5 mM 5,5-dithiobis (2-nitrobenzoic acid) (DTNB) was added as the color development solution. The BACE-1 inhibitory activity was evaluated by β-secretase (BACE1) activity detection kit (Sigma-Aldrich, St. Louis, Mo, USA) using a fluorescence spectrometer (FS-2, Scinco, Seoul, Korea).
64. […] A new and rapid colorimetric determination of acetylcholinesterase activity. Biochem. Pharmacol. 7, 88-95. […]

[4] = target: T2, MAO-A (Homo sapiens, UniProt P21397); test: MAO-A inhibition assay (recombinant enzyme, kynuramine substrate); assay type: biochemical; conditions: recombinant MAO-A, kynuramine 0.06 mM; for remaining activity at 10 µM: 10 µM compound, read-out: Residual Activity at 10 µM (%) MAO-A; for IC50: read-out: IC50 (µM) MAO-A
T2 construct: purchased Sigma-Aldrich
T2 sequence (P21397 1-527): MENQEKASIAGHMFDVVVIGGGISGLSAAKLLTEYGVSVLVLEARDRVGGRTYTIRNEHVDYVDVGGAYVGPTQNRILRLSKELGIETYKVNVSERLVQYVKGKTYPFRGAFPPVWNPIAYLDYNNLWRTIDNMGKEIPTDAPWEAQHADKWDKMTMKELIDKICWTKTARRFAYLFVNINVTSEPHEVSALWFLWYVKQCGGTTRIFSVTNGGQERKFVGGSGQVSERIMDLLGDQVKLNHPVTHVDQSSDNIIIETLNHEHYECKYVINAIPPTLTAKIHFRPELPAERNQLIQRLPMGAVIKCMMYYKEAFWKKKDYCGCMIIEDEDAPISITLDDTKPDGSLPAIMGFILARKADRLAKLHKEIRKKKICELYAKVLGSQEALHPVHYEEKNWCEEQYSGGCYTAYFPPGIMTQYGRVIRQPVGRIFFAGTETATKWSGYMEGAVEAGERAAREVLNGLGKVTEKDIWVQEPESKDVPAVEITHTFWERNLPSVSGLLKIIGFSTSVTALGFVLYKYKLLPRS
Method: (§3) Recombinant MAO-A and MAO-B were used to test the MAO inhibitory activity using the substrates kynuramine and benzylamine (0.06 mM and 0.3 mM, respectively). […] Chemicals were from Sigma-Aldrich.
(§4) MAO-A At 10 µM, compounds’ inhibitory effects on MAOs were initially recorded. […] The SI values of MAO-B were calculated by dividing the IC50 values for MAO-A and those for MAO-B. The MAO-B was used to study the kinetics of substances DM2 or DM18 at five different substrate concentrations. By using the LB plots and their secondary plots at three different inhibitor doses, the inhibition patterns were examined.

[5] = target: T3, MAO-B (Homo sapiens, UniProt P27338); test: MAO-B kinetic study (Lineweaver-Burk and secondary plots); assay type: biochemical; conditions: for Inhibition pattern of MAO-B: Lineweaver-Burk plots, five substrate and three inhibitor concentrations; for Ki: secondary plots of LB slopes vs. inhibitor concentration
T3 construct: purchased Sigma-Aldrich
T3 sequence (P27338 1-520): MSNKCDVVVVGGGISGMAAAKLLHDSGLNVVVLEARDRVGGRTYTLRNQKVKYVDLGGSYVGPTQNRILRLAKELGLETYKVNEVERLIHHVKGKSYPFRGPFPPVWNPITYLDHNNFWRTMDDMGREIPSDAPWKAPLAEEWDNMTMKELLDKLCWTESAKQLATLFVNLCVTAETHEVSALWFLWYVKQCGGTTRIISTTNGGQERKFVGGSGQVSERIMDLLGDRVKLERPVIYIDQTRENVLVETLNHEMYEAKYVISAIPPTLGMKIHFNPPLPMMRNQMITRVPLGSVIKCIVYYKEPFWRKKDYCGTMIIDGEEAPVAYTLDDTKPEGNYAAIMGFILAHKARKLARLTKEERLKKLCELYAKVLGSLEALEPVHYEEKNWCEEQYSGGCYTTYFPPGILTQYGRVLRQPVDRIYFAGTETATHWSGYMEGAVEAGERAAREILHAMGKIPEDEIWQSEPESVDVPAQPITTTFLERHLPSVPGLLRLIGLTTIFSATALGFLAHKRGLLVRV
Method: as §4

[6] = tested on: Vero cells; test: MTT cytotoxicity test on Vero cells; assay type: cell-based, African green monkey; conditions: 300 µg/mL, 48 h, phase contrast microscope
Method: (§5) Vero cells were treated to various doses (10–500 µg/mL) for 48 h, and relative cell viability was determined by measuring the absorbance at 570 nm with an ELISA microplate.
(§6) Cytotoxicity study of the lead molecule DM2 was carried out as previously described and as in Supplementary Materials described shortly.
(§7) Text S1. Supplementary procedure for toxicity evaluation
(§8) The cell line of Vero (African green monkey kidney cells) was procured from NCCS (Pune, India) and was grown in liquid medium (DMEM) containing 100 ug/mL penicillin, 100 µg/mL streptomycin, and 10% Fetal Bovine Serum (FBS) and preserved under an atmosphere of 5% CO2 at […]
(§9) The DM2 was assayed for in vitro cytotoxicity by MTT assay using the cultured Vero cells.
(§10) Briefly, the cultured Vero cells were produced by cell dissociation with trypsin (trypsinization), collectively in a 15 mL tube. At a density of 1×10^5 cells/mL cells/well (200 µL), the cells were plated for 24-48 h at 37°C into 96-well tissue culture plate in DMEM medium containing 10 % FBS and 1% antibiotic solution. The wells were washed with sterile phosphate buffered saline (PBS) and further allowed to react with varying concentrations of the DM2 in a serum free DMEM medium. The samples were triplicated and the cells were kept for incubation at 37°C for 24 h in a humidified 5% CO2 incubator. MTT (20 µL of 5 mg/mL) was added into each well after the incubation and the cells were incubated for another 2-4 h. The end point was determined by the purple precipitation, which was clearly seen under an inverted microscope. At the end, the medium along with MTT (220 µL) were used for the aspiration of the wells and later washed with 1X PBS (200 µL). In order to dissolve formazan crystals, DMSO (100 µL) was added to the plate with shaking for 5 min. The absorbance at 570 nm was measured using a micro plate reader (Thermo Fisher Scientific, USA). The IC50 value and the percentage cell viability was calculated using GraphPad Prism 8.0 software (USA).

[7] = MTT cytotoxicity test on Vero cells; assay type: cell-based, African green monkey; conditions: African green monkey, Vero cells, MTT
Method: as §5, §6, §7, §8, §9, §10

[8] = target: T3, MAO-B; test: Reversibility of MAO-B inhibition by dialysis; assay type: biochemical; conditions: for Reversibility of MAO-B inhibition: dialysis experiment; for Relative MAO-B activity, dialyzed (AD) / Relative MAO-B activity, undialyzed (AU): ~2 × IC50 (DM2 0.13, DM18 0.24, lazabemide 0.22, pargyline 0.28 µM), 30 min preincubation; for Relative MAO-B activity, dialyzed (AD): after dialysis
Method: To identify the reversibility patterns, the relative activities for samples dialyzed (AD) and for those undialyzed (AU) were compared.
By contrasting the recovery results of samples that had been dialyzed (AD) and undialyzed (AU), reversibility patterns were determined.

[9] = target: T3, MAO-B; test: MAO-B inhibition assay (recombinant enzyme, benzylamine substrate); assay type: biochemical
Method: as §3, §4

AChE, sequence (O42275 24-633): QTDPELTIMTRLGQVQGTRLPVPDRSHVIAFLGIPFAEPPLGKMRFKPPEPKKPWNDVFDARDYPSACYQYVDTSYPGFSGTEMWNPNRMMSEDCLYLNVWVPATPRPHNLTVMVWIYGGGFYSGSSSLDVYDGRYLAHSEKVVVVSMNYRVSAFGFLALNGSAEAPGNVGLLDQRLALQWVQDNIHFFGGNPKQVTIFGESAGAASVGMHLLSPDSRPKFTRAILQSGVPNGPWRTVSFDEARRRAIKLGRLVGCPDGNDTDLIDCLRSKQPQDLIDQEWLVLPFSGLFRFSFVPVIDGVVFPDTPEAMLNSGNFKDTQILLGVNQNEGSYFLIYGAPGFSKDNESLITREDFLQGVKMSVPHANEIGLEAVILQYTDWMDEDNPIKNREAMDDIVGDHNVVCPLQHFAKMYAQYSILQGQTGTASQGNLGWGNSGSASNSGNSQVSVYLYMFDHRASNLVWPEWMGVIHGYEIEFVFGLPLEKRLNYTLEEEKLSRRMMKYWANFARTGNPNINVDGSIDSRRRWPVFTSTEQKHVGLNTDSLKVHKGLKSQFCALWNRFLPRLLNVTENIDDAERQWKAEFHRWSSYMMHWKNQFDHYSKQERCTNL
T1 sequence (P56817 46-501): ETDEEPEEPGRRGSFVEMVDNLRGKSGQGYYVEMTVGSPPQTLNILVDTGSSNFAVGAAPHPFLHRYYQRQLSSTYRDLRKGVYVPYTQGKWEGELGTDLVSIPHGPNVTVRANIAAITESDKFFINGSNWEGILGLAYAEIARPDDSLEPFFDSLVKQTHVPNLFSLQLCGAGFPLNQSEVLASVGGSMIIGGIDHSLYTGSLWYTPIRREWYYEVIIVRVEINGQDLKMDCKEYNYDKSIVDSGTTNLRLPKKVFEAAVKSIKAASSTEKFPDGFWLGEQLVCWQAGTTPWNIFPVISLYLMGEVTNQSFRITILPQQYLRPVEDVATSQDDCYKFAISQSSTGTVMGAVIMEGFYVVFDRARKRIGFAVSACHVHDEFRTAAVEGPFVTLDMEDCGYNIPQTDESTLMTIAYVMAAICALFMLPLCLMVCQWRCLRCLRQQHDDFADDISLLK
BChE, sequence (P81908 whole entry): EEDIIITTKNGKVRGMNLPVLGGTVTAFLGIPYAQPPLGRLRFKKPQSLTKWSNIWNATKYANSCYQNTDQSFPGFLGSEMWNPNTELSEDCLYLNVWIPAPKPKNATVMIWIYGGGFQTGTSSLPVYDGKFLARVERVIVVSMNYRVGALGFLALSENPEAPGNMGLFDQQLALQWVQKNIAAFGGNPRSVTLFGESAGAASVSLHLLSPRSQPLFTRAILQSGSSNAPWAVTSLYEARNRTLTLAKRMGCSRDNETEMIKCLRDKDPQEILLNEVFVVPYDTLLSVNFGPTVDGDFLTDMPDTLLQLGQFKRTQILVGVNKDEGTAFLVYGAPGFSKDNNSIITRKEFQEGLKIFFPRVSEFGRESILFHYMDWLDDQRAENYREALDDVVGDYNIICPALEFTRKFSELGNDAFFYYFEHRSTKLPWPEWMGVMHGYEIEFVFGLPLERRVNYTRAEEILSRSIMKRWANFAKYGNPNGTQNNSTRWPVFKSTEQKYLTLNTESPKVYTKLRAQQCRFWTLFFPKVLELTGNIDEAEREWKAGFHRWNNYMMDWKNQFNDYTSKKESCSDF

SMILES	remaining activity at 10 µM [1]	remaining activity at 10 µM [2]	remaining activity at 10 µM [3]	remaining activity at 10 µM [4]	IC50 [4]	Inhibition pattern of MAO-B [5]	Ki [5]	Morphological observation of Vero cells [6]	IC50 at 48 h ([7]; Vero cells (kidney epithelial cells), 10–500 µg/mL, read-out: IC50 (Vero cell viability))	viability at 48 h, 100 µg/mL ([7]; 100 µg/mL, read-out: Cells alive (relative cell viability))	Reversibility of MAO-B inhibition [8]	Relative MAO-B activity, dialyzed (AD) [8]	Relative MAO-B activity, undialyzed (AU) [8]	remaining activity at 10 µM ([9]; 10 µM compound, recombinant MAO-B, benzylamine 0.3 mM, read-out: Residual Activity at 10 µM (%) MAO-B)	SI (selectivity index for MAO-B as compared to MAO-A) ([9]; IC50 MAO-A divided by IC50 MAO-B)	Times more MAO-B inhibition than meta-F analogue DM19 ([9]; ortho-F (DM18) versus meta-F (DM19))	IC50 ([9]; recombinant MAO-B, benzylamine 0.3 mM, read-out: IC50 (µM) MAO-B)
COc1ccc(C(=O)/C=C/c2ccccc2Cl)c(OC)c1 [DM2]	64.16 ± 0.44%	100.5 ± 0.18%	71.9 ± 2.87%	41.5 ± 1.59%	6.29 ± 0.432 µM	competitive inhibitors	32 ± 4 nM	cytotoxicity was evident in cell shrinkage and blebbing, and cellular density decreased	183 µg/mL (≈ 605 µM)	80%	reversible	74.0%	36.0%				
COc1ccc(C(=O)/C=C/c2ccccc2F)cc1OC [DM18]	59.5 ± 4.08%	99.94 ± 0.01%	78.5 ± 4.89%	100 ± 0.01%	> 40 µM	competitive inhibitors	45 ± 1 nM				reversible	76.6%	40.1%	8.87 ± 1.08%	>338.98	3.75	0.118 ± 0.036 µM
